Test results taken from article PMC12363935, “Unc-51 Like Kinase 3 (ULK3) is essential for autophagy and cell survival in multiple myeloma” (Research Square, 2025).
Where “and” joins values, the source holds several entries; their conditions need not be identical. Identical values can stand only once.

Test system: primary CD138+ MM cells
Test: EMMA ex vivo platform, live cell imaging, 96 hours, collagen matrix with bone marrow stroma and patient plasma
Assay type: cell-based
Set-up: scale not given here
Text: For clinical robustness, we tested the activity of MA9 in MM patient samples using our ex vivo mathematical myeloma advisor (EMMA) platform (Supplementary Table 1). […]
For these assays, we used a novel EMMA platform developed at Moffitt. Further details are included in the supplemental Materials. […]
400 Ex vivo drug sensitivity characterization
401 An ex vivo assay was used to quantify the chemosensitivity of primary MM cells. Fresh BM
402 aspirate cells were enriched for CD138+ expression using Miltenyi (Bergisch Gladbach, Germany)
MM cells (CD138+) were seeded in Corning
404 Cell BIND 384 well plates (Corning, NY) with collagen I and previously established human-
407 inactivated), penicillin/streptomycin, and patient-derived plasma (10%, freshly obtained from
409 added using a robotic plate handler so that every drug/combination was tested at 5 (fixed
410 concentration ratio, for combinations) concentrations (1:3 serial dilution) in two replicates.
411 Negative controls (supplemented growth media with and without the vehicle control dimethyl
412 sulfoxide [DMSO]) were included, as well as positive controls for each drug (cell line MM1.S at
413 highest drug concentration). Plates were placed in a motorized stage microscope (EVOS Auto FL,
414 Life Technologies, Carlsbad, CA) equipped with an incubator and maintained at 5% CO2 and 37
415 °C. […]
Digital image analysis computes the percent
418 viability of MM cells for each time point and experimental condition (drug and concentration)

`CC(C)C[C@H](NC(=O)[C@H](Cc1ccccc1)NC(=O)c1cnccn1)B(O)O` [BTZ, bortezomib] was tested, and the AUC (Pt648, LRMM) was 48.724, the AUC (Pt652, LRMM) was 65.980 and the AUC (Pt655, LRMM) was 29.968. The AUC (Pt663, LRMM) was 45.417, the AUC (Pt665, LRMM) was 47.552 and the AUC (Pt666, LRMM) was 37.470. For the same compound, the AUC (Pt669, ERMM) was 37.041, the AUC (Pt672, NDMM) was 45.751 and the AUC (Pt677, NDMM) was 30.916 and 33.959. For the same compound, the AUC (Pt680, ERMM) was 39.728 and 39.652, the AUC (Pt685, ERMM) was 34.249 and the AUC (Pt689, NDMM) was 40.257. For the same compound, the AUC (Pt691, LRMM) was 38.965, the AUC (Pt693, SMOL) was 87.905 and the AUC (Pt694, NDMM) was 31.313. For the same compound, the AUC (Pt695, LRMM) was 46.540, the AUC (Pt697, NDMM) was 44.112 and the AUC (Pt700, NDMM) was 42.763 and 44.093. It also gave an AUC (Pt707, LRMM) of 60.814, an AUC (Pt737, MGUS) of 35.864 and an AUC (Pt738, NDMM) of 46.001. For the same compound, the AUC (Pt740, SMOL) was 32.547, the AUC (Pt745, NDMM) was 47.650 and the AUC (Pt852, NDMM) was 23.262. For the same compound, the AUC (Pt853, ERMM) was 63.604 and 64.834, the AUC (Pt856, NDMM) was 36.749 and the AUC (Pt866, NDMM) was 36.635. For the same compound, the AUC (Pt875, NDMM) was 45.303, the AUC (Pt888, LRMM) was 100.000 and the AUC (Pt893, LRMM) was 100.000. For the same compound, the AUC (Pt899, SMOL) was 59.818, the AUC (Pt906, NDMM) was 59.784 and the AUC (Pt909, LRMM) was 29.196. For the same compound, the AUC (Pt912, PCL) was 26.800, the AUC (Pt917, LRMM) was 78.984 and the AUC (Pt920, LRMM) was 42.040. For the same compound, the AUC (Pt923, LRMM) was 45.019, the AUC (Pt932, LRMM) was 28.145 and the AUC (Pt933, LRMM) was 39.573. For the same compound, the AUC (Pt935, NDMM) was 31.629, the AUC (Pt936, LRMM) was 45.292 and the AUC (Pt937, NDMM) was 46.111 and 46.768. For the same compound, the AUC (Pt940, LRMM) was 43.043, the AUC (Pt956, NDMM) was 64.107 and 61.177 and the AUC (Pt957, LRMM) was 82.570. For the same compound, the AUC (Pt961, NDMM) was 70.805 and 67.849.
`CC(C)C[C@H](NC(=O)[C@H](CCc1ccccc1)NC(=O)CN1CCOCC1)C(=O)N[C@@H](Cc1ccccc1)C(=O)N[C@@H](CC(C)C)C(=O)[C@@]1(C)CO1` [CFZ, carfilzomib] showed an AUC (Pt620, NDMM) of 36.78, an AUC (Pt622, LRRMM) of 32.89 and an AUC (Pt625, NDMM) of 36.25. It also gave an AUC (Pt636, ERRMM) of 53.52, an AUC (Pt638, NDMM) of 44.52 and an AUC (Pt639, NDMM) of 52.97. The AUC (Pt648, LRMM) was 48.435, the AUC (Pt652, LRMM) was 67.924 and the AUC (Pt653, LRMM) was 60.160. The AUC (Pt655, LRMM) was 37.063 and 37.06, the AUC (Pt663, LRMM) was 48.477 and 48.48 and the AUC (Pt665, LRMM) was 52.826 and 52.83. The AUC (Pt666, LRMM) was 40.984 and 40.98, the AUC (Pt669, ERMM) was 48.58 and the AUC (Pt672, NDMM) was 56.496 and 56.5. The AUC (Pt677, NDMM) was 38.487 and 37.936, the AUC (Pt680, ERMM) was 43.762 and 43.248 and 43.76 and the AUC (Pt685, ERMM) was 44.316 and 44.32. The AUC (Pt689, NDMM) was 43.578, the AUC (Pt691, LRMM) was 40.781 and 40.78 and the AUC (Pt693, SMOL) was 97.333 and 97.33. For the same compound, the AUC (Pt694, NDMM) was 49.029 and 49.03, the AUC (Pt695, LRMM) was 54.535 and 54.53 and the AUC (Pt697, NDMM) was 45.229 and 45.23. For the same compound, the AUC (Pt700, NDMM) was 48.455 and 54.337 and 54.34, the AUC (Pt707, LRMM) was 60.754 and 60.75 and the AUC (Pt718, SMOL) was 58.31. For the same compound, the AUC (Pt737, MGUS) was 45.483, the AUC (Pt738, NDMM) was 52.453 and 52.45 and the AUC (Pt740, SMOL) was 45.352. It also gave an AUC (Pt745, NDMM) of 68.911, an AUC (Pt765, LRRMM) of 59.77 and an AUC (Pt773, LRRMM) of 32.99. It also gave an AUC (Pt808, LRRMM) of 47.11, an AUC (Pt814, LRRMM) of 62.23 and an AUC (Pt821, NDMM) of 54.79. The AUC (Pt822, ERRMM) was 62.96, the AUC (Pt825, NDMM) was 59.86 and the AUC (Pt830, ERRMM) was 61.41. For the same compound, the AUC (Pt849, LRRMM) was 99.06, the AUC (Pt852, NDMM) was 28.629 and the AUC (Pt853, ERMM) was 62.247 and 58.956. The AUC (Pt856, NDMM) was 48.272 and 48.27, the AUC (Pt865, LRMM) was 60.759 and 60.76 and the AUC (Pt866, NDMM) was 75.161 and 75.16. For the same compound, the AUC (Pt875, NDMM) was 41.904 and 41.9, the AUC (Pt885, NDMM) was 51.382 and 45.860 and 51.38 and the AUC (Pt888, LRMM) was 51.003 and 51. For the same compound, the AUC (Pt893, LRMM) was 92.226, the AUC (Pt899, SMOL) was 53.140 and the AUC (Pt906, NDMM) was 58.079 and 58.08. It also gave an AUC (Pt909, LRMM) of 32.841, an AUC (Pt912, PCL) of 23.632 and an AUC (Pt917, LRMM) of 75.009. The AUC (Pt920, LRMM) was 39.820, the AUC (Pt923, LRMM) was 54.728 and 54.73 and the AUC (Pt932, LRMM) was 43.433. For the same compound, the AUC (Pt933, LRMM) was 54.495 and 54.49, the AUC (Pt935, NDMM) was 46.326 and 46.33 and the AUC (Pt936, LRMM) was 50.956. For the same compound, the AUC (Pt937, NDMM) was 51.703 and 49.814, the AUC (Pt940, LRMM) was 63.001 and the AUC (Pt945, LRMM) was 53.027. The AUC (Pt948, LRMM) was 57.94, the AUC (Pt951, ERMM) was 62.878 and 62.88 and the AUC (Pt956, NDMM) was 68.610 and 64.376. For the same compound, the AUC (Pt957, LRMM) was 82.913 and the AUC (Pt961, NDMM) was 64.332 and 67.807.
